From a melting point compilation (Tetko et al.; mined from patent text by program, amines drawn as free bases though some values may be those of a salt)

Row | melting point [°C] | SMILES
1 | 259 | CCCn1c(=O)c2[nH]c(/C=C/c3ccccc3F)nc2n(CCC)c1=O
2 | 253 to 257 | N=C(N)Nc1cc(C(=O)O)ccc1N1C(=O)CCC1CO (centres undefined)
3 | 96 to 97 | C=CCOc1ccc(S(=O)(=O)Nc2ccc(Cl)cc2C(=O)c2ccccc2Cl)cc1
4 | 95 | NCC1COc2cc(Cl)cc(-c3ccccc3F)c2N1 (centres undefined)
5 | 226 to 229 | CCn1c(=O)c(CC(=O)O)cc2ccc(O)cc21
6 | 109 to 111 | CC(C)N(Cc1ccc(Cl)cc1)C(=O)Nc1ccccc1
7 | 173 to 174 | CCCn1nc2c(N)nc3ccccc3c2c1CCCc1cc[nH]c1
8 | 148 to 151 | O=C(c1ccccc1F)N1C(=O)c2ccccc2S1(=O)=O
9 | 124 | COCc1cc(=O)c(Oc2ccc(F)cc2F)c(-c2ccc(S(C)(=O)=O)cc2)o1
10 | 148 to 150 | O=C(O)Cc1cccc2nnsc12
11 | 119 to 120 | CCN1C(=O)c2sccc2N(C)c2ncccc21
12 | 98 to 100 | COc1ccccc1C(=O)c1ncccc1C
13 | 160 to 162 | CC(C)Oc1ccc(OCc2ccccc2)cc1-c1nc2cccnc2[nH]1
14 | 114 to 115 | Cc1ncc2c(n1)-c1ccccc1C2(Cc1ccnc(F)c1)Cc1ccnc(F)c1
15 | 134 to 136 | C/C(=C\c1ccc(OCCS(C)=O)cc1)c1ccc2c(c1)C(C)(C)CCC2(C)C (centres undefined)
16 | 107 to 108 | CC(C)(COc1ccc(CSC2NC(=O)CC2=O)cc1)c1ccccc1 (centres undefined)
17 | 141 to 142 | Cc1cc2ccccc2nc1C(=O)O
18 | 94 to 96 | CCOC(=O)c1ccc2c(c1)C(=C1CCN(C)CC1)c1ccccc1C=C2
19 | 142 to 145 | CCC(=O)Oc1cc(C(=O)c2c(Cl)cccc2Cl)c(C)cc1OC
20 | 144 to 145 | O=S1NC(Cc2cc3cc(F)ccc3o2)=NO1 (centres undefined)
21 | 131 | C=CC(CCc1ccccc1)NC(=O)c1ccccc1 (centres undefined)
22 | 131 to 132 | COc1cccc2cnc(C)nc12

Row | melting point [°C] | SMILES
23 | 104 to 106 | O=C(CC(=O)OCc1ccccc1)OCc1ccccc1
24 | 91 to 93 | C1=NCC2Cc3ccccc3Cc3cccc1c32 (centres undefined)
25 | 203 to 205 | O=CNc1cccc2ccc(O)cc12
26 | 144 to 145 | CC(Sc1nc2ccccc2s1)C(N)=O (centres undefined)
27 | 177 to 182 | CC(O)c1c(-c2ccc(O)cc2)oc2ccc(O)cc12 (centres undefined)
28 | 180 | O=C(C=Cc1cccc(S(=O)(=O)Nc2cccc3ccccc23)c1)NO
29 | 65 to 68 | COc1cc(Cl)cc(CC(O)CO)c1OCc1ccccc1 (centres undefined)
30 | 133 to 135 | CCOC(=O)CC1(O)C(=O)Nc2ccc(F)cc21 (centres undefined)
31 | 119 | CCCc1oc2ccc([N+](=O)[O-])cc2c1C(=O)c1ccc(O)cc1
32 | 188 to 189 | Cc1nc2cccc(S(=O)(=O)n3c(CCC(=O)O)cc4cc(Cl)ccc43)c2s1
33 | 143 to 144 | COC(=O)c1c(-c2cccs2)c2cc(OCc3ccccc3)ccc2c(=O)n1CC(C)C
34 | 128 to 131 | COC(=O)CCCC(=O)Nc1cccc(Br)n1
35 | 200 to 203 | NC(=O)c1nnn(Cc2ccc(C(Cl)=C(Cl)Cl)cc2)c1N
36 | 75 to 76 | ClCc1cncc(-c2ccccc2)c1
37 | 124 to 125 | Nc1ccccc1Nc1ccccn1
38 | 220 to 222 | O=[N+]([O-])c1ccc2nc(-c3ccc4c(c3)OCO4)ncc2c1
39 | 140 | CCCc1c(OCc2ccccc2)ccc2c(=O)cc(/C=C/C(=O)OCC)oc12
40 | 80 to 81 | CCCCC(=O)NCc1ccc(I)cc1
41 | 245 | O=C(Nc1cccc(S(=O)(=O)N2CCCC2)c1)c1cnn2c(C(F)F)cc(-c3ccc(Cl)c(Cl)c3)nc12
42 | 160 to 161 | O=c1cc(-c2ccccc2)sc(N2CCOCC2)c1
43 | 136 to 140 | Cc1nc2ccccc2nc1OCc1nc(Cl)cc(N2CCCC2)n1
44 | 141 to 142 | Cc1ccc(-c2cc(F)c(F)cc2-c2ccc(S(C)(=O)=O)cc2)cn1

The remaining lines, values behind:

Row | SMILES | melting point [°C]
45 | Cc1nc(N)nc(N)c1CCC(C)c1ccc(Cl)cc1Cl (centres undefined) | 164 to 168
46 | CCSc1c(Cl)c(C(=O)O)c(C(O)=NC)c(Cl)c1SCC | 154 to 155
47 | CCOC(=O)c1snnc1SC | 64.5 to 65.5
48 | CCNC(=O)C[C@@H]1N=C(c2ccc(Cl)cc2)c2cc(OC)ccc2-n2c(C)nnc21 | > 140
49 | O=C(O)CCNC(=O)C(CS)Cc1ccccc1 (centres undefined) | 76 to 82
50 | O=C1c2ccccc2-c2c1c1ccccc1c(=O)n2CCCCCCNS(=O)(=O)c1ccc(Br)cc1 | 188 to 190
51 | Nc1ccc(OCC(F)(F)F)cc1[N+](=O)[O-] | 84 to 85
52 | CC(C)(C)OC(=O)N1CCN2C(=O)N(c3ccc(C#N)c4ccccc34)C(=O)C2C1 (centres undefined) | 222 to 224
53 | Cc1cc(NCCO)c2[nH]nc(C)c2n1 | 225 to 230
54 | O=C(Nc1cn(C2CCCCO2)nc1C(=O)NCCCO)c1ccccn1 (centres undefined) | 139 to 140
55 | CN1CCc2c(cccc2NC(=O)c2ccccc2F)C1 | 112
56 | O=C(O)c1ccc(COc2ccc3cc(-c4ccc(-c5ccccc5)n4Cc4ccc(C(F)(F)F)cc4)ccc3c2)cc1 | 228 to 229
57 | c1cnnc(N2CCN(CCCOc3ccc(C4=NCCO4)cc3)CC2)c1 | 145
58 | CCCCOC(=O)C(=O)Nc1ccccn1 | 35 to 37
59 | COc1cc2c3c(n(C)c(=O)c2cc1OC)-c1cc2c(cc1C3=CCCCCCBr)OCO2 | 182 to 185
60 | NCCc1ccc(N2C(=O)N(c3ccc(Cl)cc3Cl)Cc3cnc(Nc4ccccc4)nc32)cc1 | 117 to 121
61 | COc1cc(C(C)=O)ccc1OCCCCCl | 68.5 to 70.5
62 | NC1CCN(c2c(F)c(F)c3c(=O)c(C(=O)O)cn(C4CC4)c3c2F)C1 (centres undefined) | 290 to 292
63 | CC(=O)SCCC(=O)N1[C@@H](c2ccccc2O)SC[C@H]1C(=O)N(c1ccccc1)[C@@H](C)C(=O)OC(C)(C)C | 140 to 142
64 | Cc1cnc(CSc2nc3cc(OC(F)(F)C(F)F)ccc3[nH]2)c(Cl)c1N1CCCCC1 | 170 to 171
65 | OC(COc1ncnc2nc[nH]c12)CN1CCN(C(c2ccccc2)c2ccccc2)CC1 (centres undefined) | 115
66 | CCCCc1c(Cc2ccc(-c3ccccc3C(=O)O)cc2)c(=O)nc2n1CC(=O)N2 | 220 to 222
67 | Cc1cnc2n1-c1ccc(Cl)cc1C(c1ccccc1)=NC2 | 190 to 191
68 | CC1O[C@@](Cn2cncn2)(c2ccc(Cl)cc2Cl)[C@@H](C)N1S(C)(=O)=O (relative stereo) | 160 to 170
69 | O=C1Nc2cccnc2N(C(=O)N2CCC(CCN3CCCCC3)CC2)c2ccccc21 | 178 to 180
70 | CN1CCN(c2ccc(S(=O)(=O)Oc3ccc(Cl)cc3)cc2)C1=O | 165 to 168
71 | COc1cc(N)c(Cl)cc1C(=O)NCC1CCN(CCCS(=O)(=O)Cc2ccccc2)CC1 | 166 to 168
72 | CC(C)c1ccc(-n2c(CC(=O)O)c(C(=O)O)c3cc(Oc4ccc(Cl)c(Cl)c4)ccc32)cc1 | 174 to 180

Row | SMILES | melting point [°C]
73 | CCCOc1nc(N)nc2nc[nH]c12 | 198 to 200
74 | Nc1nc(O)c2c(n1)NCC(CCc1ccc(C(=O)N[C@@H](CCC(=O)O)C(=O)O)c(F)c1)C2 (some centres undefined) | 199 to 209
75 | CCOC(=O)N1CCCN(c2nc3ccccc3[nH]2)CC1 | 161 to 162
76 | COc1ccc(-c2cc(-c3ccccc3)c(-c3ccccc3)s2)cc1F | 118 to 122
77 | CCOC(=O)C1CN(C(C)=O)CCN1CC=CC(=O)Nc1cc2c(Nc3ccc(F)c(Cl)c3)ncnc2cc1OCC1CC1 (centres undefined) | 152 to 156
78 | CCOC(=O)c1cn(CC)c2occc2c1=O | 158 to 160
79 | COc1ccc(-c2nc(Sc3ncccn3)[nH]c2-c2ccc(OC)cc2)cc1 | 86
80 | C=CCOC(=O)COC(=O)c1c(Br)c(Br)c(C(=O)OCC(=O)OCC=C)c(Br)c1Br | 146 to 148
81 | CCN(CC)c1ccc(C(=O)C(C)(C)N2CCOCC2)cc1 | 86 to 89
82 | Cc1ccccc1-c1ccc(C(=O)N2Cc3ccc(C(=O)NC(C)c4ccccc4)n3Cc3ccccc32)cc1C (centres undefined) | 118 to 124
83 | Cc1ccc(-c2ccc3c(c2)C=C(C(=O)Nc2ccc(CN4CCCCC4)cc2)C3)cc1 | 219 to 220
84 | CCOc1cc(COc2nn(-c3ccccc3)cc2C=O)ccc1OCc1nc(-c2ccco2)oc1C | 149 to 150
85 | O=C(c1ccccc1)c1ccc(C(=O)N2Cc3ccccc3Oc3ccccc32)cc1 | 103 to 106
86 | CCOP(=O)(OCC)C(F)(F)c1ccc(CN(Cc2ccc(C(F)(F)P(=O)(OCC)OCC)cc2)C(=O)NCc2ccccc2)cc1 | 124 to 127
87 | CC(=O)c1ccc(-c2ccc(CC(=O)NC3CCN(Cc4ccc(Cl)c(Cl)c4)CC3)cc2)cc1 | 184
88 | Cn1c(C(F)(F)F)cc(=O)n(-c2ccc3snc(C(Cl)Br)c3c2)c1=O (centres undefined) | 93 to 96
89 | N#Cc1nc(Cl)c(-c2c(F)cccc2Cl)c(Cl)c1Br | 90
90 | COc1cccc(S)c1S(N)(=O)=O | 166
91 | COC1=C(OC)C(=O)C(CCCCCCCCCC=O)=C(C)C1=O | 44.5 to 46.5
92 | O=C(Nc1ccccc1)N1C(=O)C2(CCCCC2)NC12CCCCC2 | 129 to 130
93 | CC(C)C(NC(=O)NCc1ccccn1)C(=O)NC(Cc1ccccc1)C(O)C(Cc1ccccc1)NC(=O)C(NC(=O)NCc1ccccn1)C(C)C (centres undefined) | 198 to 199
94 | O=[N+]([O-])c1c(-c2ccc(Cl)cc2)[nH]c(C(F)(F)F)c1-c1csc(Br)c1Br | 241 to 242
95 | COc1cc2c(cc1OC)CC(NCC(N)=O)C2 | 135 to 138
96 | CCCCCCCC(=O)c1c(C(=O)CCCCCCC)c(-c2ccccc2)n(-c2ccc(C)cc2)c1-c1ccccc1 | 51 to 53
97 | Cn1cnc(COc2nn3c(-c4ccccc4)nnc3c(Cl)c2N2CCCC2)n1 | 198 to 199
98 | N#Cc1c(N2CCN(C(=O)c3cccs3)CC2)c2sccc2n(CC(=O)c2ccccc2)c1=O | 300
99 | CC1(C)OC(=C(C#N)C#N)C(C#N)=C1/C=C/c1ccc([N+](=O)[O-])cc1 | 281
